Measurements: ChEMBL document CHEMBL4725230, “Syntheses and pharmacokinetic evaluations of four metabolites of 2-(4-(2-((1H-benzo[d]imidazol-2-yl)thio)ethyl)piperazin-1-yl)-N-(6-methyl-2,4-bis-(methylthio)pyridin-3-yl)acetamide hydrochloride [K-604], an acyl-CoA:cholesterol O-acyltransferase-1 inhibitor” (Bioorg Med Chem, 2020)

Assay: Retention time of the compound in human liver microsomes after 5 mins in presence of NADPH by LC-MS/MS analysis
Type: ADME, Microsome

CSc1cc(C)nc(SC)c1NC(=O)CN1CCN(CC[S+]([O-])c2nc3ccccc3[nH]2)CC1 (stereo unspecified)
Retention_time: 5.78 min
